Here are results for one compound from US9545407B2, “Formulations of a bruton's tyrosine kinase inhibitor” (Pharmacyclics LLC, priority 2014, dated 2017).

The test system of this test is OCI-Ly10. In words: growth inhibition of OCI-Ly10 (ABC subtype DLBCL cells). In kind it is cell-based. Particulars: Homo sapiens. From the text:
See U.S. Pat. No. 7,711,492 and Staudt et al., Nature, Vol. 463, Jan. 7, 2010, pp. 88-92, the contents of which are incorporated by reference in their entirety.

SMILES strings stand for the structures. Like-named read-outs stand apart in the source and are kept apart here.

Take `C=CC(=O)N1CCC[C@@H](n2nc(-c3ccc(Oc4ccccc4)cc3)c3c(N)ncnc32)C1` [Compound 1, 1-((R)-3-(4-amino-3-(4-phenoxyphenyl)-1H-pyrazolo[3,4-d]pyrimidin-1-yl)piperidin-1-yl)prop-2-en-1-one]: the EC50 reads like this: (continuous exposure, read-out: EC50 continuous exposure) 10 nM; (read-out: EC50 1 hour pulse, 1 hour pulse) 50 nM.

By EC50 is commonly meant the concentration giving half of the maximal effect.
